Reference: patent US9624239B2, “Protein kinase inhibitors” (Pharmascience Inc., priority 2011, dated 2017)

How the values were obtained:
[1] = biological target: T1, histidine tagged recombinant Human Lymphocyte-Specific Protein Tyrosine Kinase (Lck) (Homo sapiens, UniProt P06239); assay: Lck kinase inhibition assay (fluorescence polarization, KinEASE FP Fluorescein Green); type: biochemical; details: 10 μM ATP, 250 μM substrate, 60 minutes, room temperature; Ki from IC50 by Cheng-Prusoff
T1 construct: histidine tag
Experimental: Kinase Binding Btk and Lck Kinase Inhibition Assay
Fluorescence polarization-based kinase assays were performed in 384 well-plate format using histidine tagged recombinant human full-length Bruton Agammaglobulinemia Tyrosine Kinase (Btk) or histidine tagged recombinant Human Lymphocyte-Specific Protein Tyrosine Kinase (Lck) and a modified protocol of the KinEASE™ FP Fluorescein Green Assay supplied from Millipore. Kinase reaction were performed at room temperature for 60 minutes in presence of 250 μM substrate, 10 μM ATP and variable test article concentrations. The reaction was stopped with EDTA/kinease detection reagents and the polarization measured on a Tecan 500 instrument. From the dose-response curve obtained, the IC50 was calculated using Graph Pad Prisms® using a non-linear fit curve. The Km for ATP on each enzyme was experimentally determined and the Ki values calculated using the Cheng-Prusoff equation (see: Cheng Y, Prusoff W H. (1973) Relationship between the inhibition constant (K1) and the concentration of inhibitor which causes 50 percent inhibition (I50) of an enzymatic reaction”. Biochem Pharmacol 22 (23): 3099-108).
ki values are reported in Tables 2 and 3: • a—Less than 100 nM; b—less than 1000 nM; c—more than 1000 nM

[2] = biological target: T2, histidine tagged recombinant human full-length Bruton Agammaglobulinemia Tyrosine Kinase (Btk) (Homo sapiens, UniProt Q06187); assay: Btk kinase inhibition assay (fluorescence polarization, KinEASE FP Fluorescein Green); type: biochemical; details: 10 μM ATP, 250 μM substrate, 60 minutes, room temperature; Ki from IC50 by Cheng-Prusoff; read-out: ki50 (nM), Inhibition of Btk
T2 construct: recombinant human full-length Bruton Agammaglobulinemia Tyrosine Kinase (Btk); histidine tag
In short: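 His-tagged recombinant human kinase (full-length Btk, or Lck) reacted 60 min at room temperature with 250 μM substrate and 10 μM ATP; stopped with EDTA and detection reagents, read by fluorescence polarization. IC50 from non-linear dose-response fit, converted to Ki by Cheng-Prusoff using each enzyme's measured ATP Km.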

mouse splenocytes = assay: Splenic cell proliferation assay (anti-IgM stimulated B cell proliferation, Cell Titer-Glo); type: cell-based; details: Splenocyte; CD1 mouse splenocytes, 1 h pre-treatment, 2.5 ug/ml anti-IgM F(ab')2 for 72 h; read-out: EC50 (nM), Inhibition of splenic cell proliferation
In short: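 Splenocytes from 6-week male CD1 mice, depleted of adherent cells, were pre-treated in triplicate with compound curves up to 10,000 nM for 1 h. B-cell proliferation was then driven by 2.5 ug/ml anti-IgM F(ab′)2 for 72 h, read by Cell Titer-Glo. EC50 was calculated relative to vehicle controls.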

T2 sequence (Q06187 whole entry): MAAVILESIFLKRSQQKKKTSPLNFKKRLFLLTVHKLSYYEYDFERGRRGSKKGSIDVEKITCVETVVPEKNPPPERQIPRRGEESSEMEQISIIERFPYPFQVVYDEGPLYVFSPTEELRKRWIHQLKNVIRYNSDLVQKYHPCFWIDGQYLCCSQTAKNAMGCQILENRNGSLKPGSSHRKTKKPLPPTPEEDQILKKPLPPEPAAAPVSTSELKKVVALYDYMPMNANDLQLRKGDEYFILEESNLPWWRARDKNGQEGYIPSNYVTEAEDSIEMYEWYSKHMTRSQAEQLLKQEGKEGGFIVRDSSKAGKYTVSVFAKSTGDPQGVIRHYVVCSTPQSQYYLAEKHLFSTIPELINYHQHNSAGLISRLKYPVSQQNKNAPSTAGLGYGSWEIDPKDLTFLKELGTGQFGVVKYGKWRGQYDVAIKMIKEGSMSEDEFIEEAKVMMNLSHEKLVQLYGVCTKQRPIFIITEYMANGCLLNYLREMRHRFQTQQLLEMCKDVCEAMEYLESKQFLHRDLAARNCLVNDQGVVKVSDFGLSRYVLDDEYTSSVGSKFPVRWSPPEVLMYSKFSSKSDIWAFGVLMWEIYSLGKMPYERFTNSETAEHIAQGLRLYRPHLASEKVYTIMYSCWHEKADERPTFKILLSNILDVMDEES
T1 sequence (P06239 whole entry): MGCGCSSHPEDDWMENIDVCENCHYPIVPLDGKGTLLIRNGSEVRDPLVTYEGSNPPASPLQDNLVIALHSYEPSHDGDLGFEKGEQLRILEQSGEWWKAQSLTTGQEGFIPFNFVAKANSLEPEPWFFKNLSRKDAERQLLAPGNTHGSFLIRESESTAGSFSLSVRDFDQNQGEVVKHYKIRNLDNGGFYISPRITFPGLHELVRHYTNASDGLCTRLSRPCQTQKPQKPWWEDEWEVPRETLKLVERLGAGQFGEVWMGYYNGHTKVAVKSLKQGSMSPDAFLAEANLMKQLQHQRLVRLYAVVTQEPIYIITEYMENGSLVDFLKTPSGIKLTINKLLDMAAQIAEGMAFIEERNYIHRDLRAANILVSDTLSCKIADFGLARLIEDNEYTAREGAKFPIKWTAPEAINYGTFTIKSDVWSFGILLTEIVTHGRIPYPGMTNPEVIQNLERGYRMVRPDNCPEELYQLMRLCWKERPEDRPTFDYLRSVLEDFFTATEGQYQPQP

Structure (SMILES) | Ki [1] | Ki [2] | EC50 (mouse splenocytes)
CC1OCc2c1c1ncnc(N)c1n2-c1ccc(Oc2ccccc2)cc1 (stereo not drawn) [Compound 20] | < 100 nM | < 100 nM | 100 to 1000 nM
CC1OCc2c1c1ncnc(N)c1n2-c1ccc(Oc2cccc(OCc3ccc(C(F)(F)F)cc3)c2)cc1 (stereo not drawn) [Compound 57] | < 100 nM | < 100 nM | > 1000 nM
Nc1ncnc2c3c(n(-c4ccc(Oc5ccccc5)cc4)c12)CNC3 [Compound 7] | < 1000 nM | > 1000 nM | > 1000 nM
Nc1ncnc2c3c(n(-c4ccc(Oc5ccccc5)cc4)c12)COC3 [Compound 21] | < 100 nM | < 1000 nM | > 1000 nM
Nc1ncnc2c3c(n(-c4ccc(Oc5ccc(Cl)cc5)cc4)c12)CCC3 [Compound 4] | < 1000 nM | < 1000 nM | > 1000 nM
Nc1ncnc2c3c(n(-c4ccc(Oc5ccccc5)cc4)c12)CCCC3 [Compound 13] | < 1000 nM | < 1000 nM | > 1000 nM
COc1cc(-n2c3c(c4ncnc(N)c42)CCC3)ccc1Oc1ccccc1 [Compound 23] | < 100 nM | < 1000 nM | > 1000 nM
CC1OCc2c1c1ncnc(N)c1n2-c1ccc(Oc2cccc(C(F)(F)F)c2)cc1 (stereo not drawn) [Compound 29] | < 1000 nM | < 1000 nM | 100 to 1000 nM
CC1OCc2c1c1ncnc(N)c1n2-c1ccc(Oc2cccc([N+](=O)[O-])c2)cc1 (stereo not drawn) [Compound 45] | < 1000 nM | > 1000 nM | > 1000 nM
CCN1Cc2c(n(-c3ccc(Oc4ccccc4)cc3)c3c(N)ncnc23)C1 [Compound 14] | < 1000 nM | > 1000 nM | > 1000 nM
CC1OCc2c1c1ncnc(N)c1n2-c1ccc(Oc2cccc(O)c2)cc1 (stereo not drawn) [Compound 44] | < 100 nM | < 100 nM | > 1000 nM
CC1OCc2c1c1ncnc(N)c1n2-c1ccc(Oc2cccc(F)c2)cc1 (stereo not drawn) [Compound 35] | < 1000 nM | < 1000 nM | > 1000 nM
CC1OCc2c1c1ncnc(N)c1n2-c1ccc(Oc2cccc(OCc3ccc(F)cc3)c2)cc1 (stereo not drawn) [Compound 49] | < 100 nM | < 100 nM | 100 to 1000 nM
CC1OCc2c1c1ncnc(N)c1n2-c1ccc(Oc2ccccc2C(F)(F)F)cc1 (stereo not drawn) [Compound 32] | < 1000 nM | < 1000 nM | 100 to 1000 nM
CCC1OCc2c1c1ncnc(N)c1n2-c1ccc(Oc2ccccc2)cc1 (stereo not drawn) [Compound 24] | < 100 nM | < 1000 nM | 100 to 1000 nM
Nc1ncnc2c3c(n(-c4ccc(Oc5ccccc5)cc4)c12)CCC3 [Compound 1] | < 100 nM | < 1000 nM | > 1000 nM
CC1OCc2c1c1ncnc(N)c1n2-c1ccc(Oc2ccccc2Cl)cc1 (stereo not drawn) [Compound 33] | < 100 nM | < 1000 nM | 100 to 1000 nM
CC1OCc2c1c1ncnc(N)c1n2-c1ccc(Oc2ccccc2C(N)=O)cc1 (stereo not drawn) [Compound 60] | < 1000 nM | > 1000 nM | > 1000 nM
Nc1ncnc2c3c(n(-c4ccc(Oc5ccc(Br)cc5)cc4)c12)CCC3 [Compound 3] | < 1000 nM | < 1000 nM | > 1000 nM

Structure (SMILES) | Ki [1] | Ki [2] | EC50 (mouse splenocytes)
Nc1ncnc2c3c(n(-c4ccc(Oc5ccccc5)cc4)c12)COC3CCCO (stereo not drawn) [Compound 27] | < 100 nM | < 1000 nM | > 1000 nM
COc1ccccc1Oc1ccc(-n2c3c(c4ncnc(N)c42)C(C)OC3)cc1 (stereo not drawn) [Compound 28] | < 1000 nM | < 1000 nM | > 1000 nM
CC1OCc2c1c1ncnc(N)c1n2-c1ccc(Oc2cccc(OCc3ccccc3)c2)cc1 (stereo not drawn) [Compound 43] | < 100 nM | < 100 nM | 100 to 1000 nM
COc1cccc(Oc2ccc(-n3c4c(c5ncnc(N)c53)C(C)OC4)cc2)c1 (stereo not drawn) [Compound 25] | < 100 nM | < 100 nM | 100 to 1000 nM
CCOc1cccc(Oc2ccc(-n3c4c(c5ncnc(N)c53)C(C)OC4)cc2)c1 (stereo not drawn) [Compound 41] | < 100 nM | < 100 nM | 100 to 1000 nM
CC1OCc2c1c1ncnc(N)c1n2-c1ccc(Oc2cccc(OCC3CCCCC3)c2)cc1 (stereo not drawn) [Compound 56] | < 100 nM | < 100 nM | > 1000 nM
Nc1ncnc2c3c(n(-c4ccc(Oc5ccccc5)cc4)c12)COC3c1ccccc1 (stereo not drawn) [Compound 30] | < 1000 nM | < 100 nM | > 1000 nM
Nc1ncnc2c3c(n(-c4ccc(Oc5ccccc5)cc4)c12)COC3CCCOc1ccccc1 (stereo not drawn) [Compound 36] | < 1000 nM | > 1000 nM | > 1000 nM
CC1OCc2c1c1ncnc(N)c1n2-c1ccc(Oc2ccccc2C#N)cc1 (stereo not drawn) [Compound 58] | < 100 nM | < 1000 nM | 100 to 1000 nM
CC1OCc2c1c1ncnc(N)c1n2-c1ccc(Oc2ccc(F)cc2)cc1 (stereo not drawn) [Compound 42] | < 1000 nM | > 1000 nM | > 1000 nM
COc1cc(F)cc(Oc2ccc(-n3c4c(c5ncnc(N)c53)C(C)OC4)cc2)c1 (stereo not drawn) [Compound 59] | < 100 nM | < 1000 nM | 100 to 1000 nM
CC1OCc2c1c1ncnc(N)c1n2-c1ccc(Oc2ccccc2F)cc1 (stereo not drawn) [Compound 34] | < 100 nM | < 100 nM | > 1000 nM
Nc1ncnc2c3c(n(-c4ccc(Oc5cccc(O)c5)cc4)c12)CCC3 [Compound 61] | < 100 nM | > 1000 nM | > 1000 nM
Nc1ncnc2c3c(n(-c4ccc(Oc5ccccc5)cc4)c12)COC3CCCOCc1ccccc1 (stereo not drawn) [Compound 26] | < 1000 nM | > 1000 nM | > 1000 nM
CC1OCc2c1c1ncnc(N)c1n2-c1ccc(Oc2cccc(C(N)=O)c2)cc1 (stereo not drawn) [Compound 38] | > 1000 nM | > 1000 nM | > 1000 nM
Nc1ncnc2c3c(n(-c4ccc(Oc5ccc(F)cc5)cc4)c12)CCC3 [Compound 2] | > 1000 nM | > 1000 nM | > 1000 nM
CC1OCc2c1c1ncnc(N)c1n2-c1ccc(Oc2cccc(OCc3ccncc3)c2)cc1 (stereo not drawn) [Compound 54] | < 100 nM | < 100 nM | > 1000 nM
CC1OCc2c1c1ncnc(N)c1n2-c1ccc(Oc2cccc(OCc3cccnc3)c2)cc1 (stereo not drawn) [Compound 53] | < 100 nM | < 100 nM | 100 to 1000 nM
CC1OCc2c1c1ncnc(N)c1n2-c1ccc(Oc2cccc(Cl)c2)cc1 (stereo not drawn) [Compound 31] | < 100 nM | < 1000 nM | 100 to 1000 nM
